In brackets after ≈: the same amount, converted by molar mass.
Tested on: A. baumannii clinical isolates
Assay: microbe, parasite or virus in culture
Protocol: The in vitro activity of AA139 and comparator antimicrobials was determined in two panels of clinical isolates of E. coli, K. pneumoniae, P. aeruginosa, and A. baumannii (Supplementary Table 3), and MIC90 presented. The US panel consisted of 331 clinical isolates from 2010 to 2012. It was tested by BMD in accordance with the CLSI guidelines (M07-A9, 2012)[39]. […] AA139 was diluted in 0.01% acetic acid/0.1% bovine serum albumin. Sterile polypropylene culture cluster round-bottom 96-well plates (Costar # 3879) were used for testing. The worldwide panel consisted of 445 clinical isolates from 2011 to 2013, geographically divided into Asia, Europe, North America, and Rest of World (Middle East, Latin America, Africa, and South Pacific) with each region representing ~25% of the isolates. It was tested by broth microdilution in accordance with the CLSI guidelines (M07-A9, 2012)[39]. […] The test media was CAMHB (Becton Dickinson). AA139 and polymyxin B were tested in media supplemented with 0.002% Tween 80 (Calbiochem). MIC90 values were calculated for all or subsets of the isolates. MIC correlation between AA139 and colistin was analyzed with data from the US panel.

[1] = US isolates 2010-2012, isolate CID 1919446, Rep 1
[2] = US isolates 2010-2012, isolate CID 1919446, Rep 2
[3] = US isolates 2010-2012, isolate CID 1919519, Rep 1
[4] = US isolates 2010-2012, isolate CID 1919519, Rep 2
[5] = US isolates 2010-2012, isolate CID 1919714, Rep 1
[6] = US isolates 2010-2012, isolate CID 1919714, Rep 2
[7] = US isolates 2010-2012, isolate CID 1919942, Rep 1
[8] = US isolates 2010-2012, isolate CID 1919942, Rep 2
[9] = US isolates 2010-2012, isolate CID 1930670, Rep 1
[10] = US isolates 2010-2012, isolate CID 1930670, Rep 2
[11] = US isolates 2010-2012, isolate CID 1930676, Rep 1
[12] = US isolates 2010-2012, isolate CID 1930676, Rep 2
[13] = US isolates 2010-2012, isolate CID 2727597, Rep 1
[14] = US isolates 2010-2012, isolate CID 2727597, Rep 2
[15] = US isolates 2010-2012, isolate CID 2727598, Rep 1
[16] = US isolates 2010-2012, isolate CID 2727598, Rep 2
[17] = US isolates 2010-2012, isolate CID 2727898, Rep 1
[18] = US isolates 2010-2012, isolate CID 2727898, Rep 2
[19] = US isolates 2010-2012, isolate CID 2728115, Rep 1
[20] = US isolates 2010-2012, isolate CID 2728115, Rep 2
[21] = US isolates 2010-2012, isolate CID 2728119, Rep 1
[22] = US isolates 2010-2012, isolate CID 2728119, Rep 2
[23] = US isolates 2010-2012, isolate CID 2728650, Rep 1
[24] = US isolates 2010-2012, isolate CID 2728650, Rep 2
[25] = US isolates 2010-2012, isolate CID 2728663, Rep 1
[26] = US isolates 2010-2012, isolate CID 2728663, Rep 2
[27] = US isolates 2010-2012, isolate CID 2732481, Rep 1
[28] = US isolates 2010-2012, isolate CID 2732481, Rep 2
[29] = US isolates 2010-2012, isolate CID 2732486, Rep 1
[30] = US isolates 2010-2012, isolate CID 2732486, Rep 2
[31] = US isolates 2010-2012, isolate CID 2762740, Rep 1
[32] = US isolates 2010-2012, isolate CID 2762740, Rep 2
[33] = US isolates 2010-2012, isolate CID 2801947, Rep 1
[34] = US isolates 2010-2012, isolate CID 2801947, Rep 2
[35] = US isolates 2010-2012, isolate CID 2801949, Rep 1
[36] = US isolates 2010-2012, isolate CID 2801949, Rep 2
[37] = US isolates 2010-2012, isolate CID 2802027, Rep 1
[38] = US isolates 2010-2012, isolate CID 2802027, Rep 2
[39] = US isolates 2010-2012, isolate CID 2802028, Rep 1
[40] = US isolates 2010-2012, isolate CID 2802028, Rep 2
[41] = US isolates 2010-2012, isolate CID 2802029, Rep 1
[42] = US isolates 2010-2012, isolate CID 2802029, Rep 2
[43] = US isolates 2010-2012, isolate CID 2802031, Rep 1
[44] = US isolates 2010-2012, isolate CID 2802031, Rep 2
[45] = US isolates 2010-2012, isolate CID 2802109, Rep 2
[46] = US isolates 2010-2012, isolate CID 2802111, Rep 2
[47] = US isolates 2010-2012, isolate CID 2802187, Rep 1
[48] = US isolates 2010-2012, isolate CID 2802187, Rep 2

CC(C)(O/N=C(\C(=O)N[C@@H]1C(=O)N2C(C(=O)[O-])=C(C[n+]3ccccc3)CS[C@H]12)c1csc(N)n1)C(=O)O [Ceftaz]
MIC [1]: 4 µg/mL (≈ 7.32 µM) | MIC [2]: 4 µg/mL (≈ 7.32 µM) | MIC [3]: > 32 µg/mL | MIC [4]: > 32 µg/mL | MIC [5]: > 32 µg/mL | MIC [6]: > 32 µg/mL | MIC [7]: 8 µg/mL (≈ 14.6 µM) | MIC [8]: 4 µg/mL (≈ 7.32 µM) | MIC [9]: > 32 µg/mL | MIC [10]: > 32 µg/mL | MIC [11]: 4 µg/mL (≈ 7.32 µM) | MIC [12]: 4 µg/mL (≈ 7.32 µM) | MIC [13]: > 32 µg/mL | MIC [14]: > 32 µg/mL | MIC [15]: > 32 µg/mL | MIC [16]: > 32 µg/mL | MIC [17]: 2 µg/mL (≈ 3.66 µM) | MIC [18]: 4 µg/mL (≈ 7.32 µM) | MIC [19]: > 32 µg/mL | MIC [20]: > 32 µg/mL | MIC [21]: 32 µg/mL (≈ 58.5 µM) | MIC [22]: 32 µg/mL (≈ 58.5 µM) | MIC [23]: > 32 µg/mL | MIC [24]: > 32 µg/mL | MIC [25]: > 32 µg/mL | MIC [26]: > 32 µg/mL | MIC [27]: 32 µg/mL (≈ 58.5 µM) | MIC [28]: 32 µg/mL (≈ 58.5 µM) | MIC [29]: > 32 µg/mL | MIC [30]: 32 µg/mL (≈ 58.5 µM) | MIC [31]: > 32 µg/mL | MIC [32]: > 32 µg/mL | MIC [33]: 2 µg/mL (≈ 3.66 µM) | MIC [34]: 2 µg/mL (≈ 3.66 µM) | MIC [35]: 8 µg/mL (≈ 14.6 µM) | MIC [36]: 2 µg/mL (≈ 3.66 µM) | MIC [37]: > 32 µg/mL | MIC [38]: > 32 µg/mL | MIC [39]: > 32 µg/mL | MIC [40]: > 32 µg/mL | MIC [41]: > 32 µg/mL | MIC [42]: > 32 µg/mL | MIC [43]: > 32 µg/mL | MIC [44]: > 32 µg/mL | MIC [45]: 32 µg/mL (≈ 58.5 µM) | MIC [46]: 8 µg/mL (≈ 14.6 µM) | MIC [47]: 4 µg/mL (≈ 7.32 µM) | MIC [48]: 4 µg/mL (≈ 7.32 µM)

C[C@@H](O)[C@H]1C(=O)N2C(C(=O)O)=C(S[C@@H]3CN[C@H](C(=O)N(C)C)C3)[C@H](C)[C@H]12 [Mero]
MIC [1]: 1 µg/mL (≈ 2.61 µM) | MIC [2]: 2 µg/mL (≈ 5.22 µM) | MIC [3]: > 16 µg/mL | MIC [4]: > 16 µg/mL | MIC [5]: > 16 µg/mL | MIC [6]: > 16 µg/mL | MIC [7]: 1 µg/mL (≈ 2.61 µM) | MIC [8]: 1 µg/mL (≈ 2.61 µM) | MIC [9]: 16 µg/mL (≈ 41.7 µM) | MIC [10]: > 16 µg/mL | MIC [11]: 0.5 µg/mL (≈ 1.3 µM) | MIC [12]: 0.5 µg/mL (≈ 1.3 µM) | MIC [13]: > 16 µg/mL | MIC [14]: > 16 µg/mL | MIC [15]: > 16 µg/mL | MIC [16]: > 16 µg/mL | MIC [17]: 0.5 µg/mL (≈ 1.3 µM) | MIC [18]: 0.5 µg/mL (≈ 1.3 µM) | MIC [19]: > 16 µg/mL | MIC [20]: > 16 µg/mL | MIC [21]: > 16 µg/mL | MIC [22]: > 16 µg/mL | MIC [23]: 16 µg/mL (≈ 41.7 µM) | MIC [24]: 16 µg/mL (≈ 41.7 µM) | MIC [25]: 1 µg/mL (≈ 2.61 µM) | MIC [26]: 2 µg/mL (≈ 5.22 µM) | MIC [27]: > 16 µg/mL | MIC [28]: > 16 µg/mL | MIC [29]: > 16 µg/mL | MIC [30]: > 16 µg/mL | MIC [31]: > 16 µg/mL | MIC [32]: > 16 µg/mL | MIC [33]: 0.25 µg/mL (≈ 0.652 µM) | MIC [34]: 0.25 µg/mL (≈ 0.652 µM) | MIC [35]: 1 µg/mL (≈ 2.61 µM) | MIC [36]: 0.25 µg/mL (≈ 0.652 µM) | MIC [37]: > 16 µg/mL | MIC [38]: > 16 µg/mL | MIC [39]: > 16 µg/mL | MIC [40]: > 16 µg/mL | MIC [41]: > 16 µg/mL | MIC [42]: > 16 µg/mL | MIC [43]: 1 µg/mL (≈ 2.61 µM) | MIC [44]: 1 µg/mL (≈ 2.61 µM) | MIC [45]: > 16 µg/mL | MIC [46]: > 16 µg/mL | MIC [47]: 1 µg/mL (≈ 2.61 µM) | MIC [48]: 2 µg/mL (≈ 5.22 µM)

CN(C)c1cc(NC(=O)CNC(C)(C)C)c(O)c2c1C[C@H]1C[C@H]3[C@H](N(C)C)C(O)=C(C(N)=O)C(=O)[C@@]3(O)C(O)=C1C2=O [Tig]
MIC [1]: 2 µg/mL (≈ 3.41 µM) | MIC [2]: 1 µg/mL (≈ 1.71 µM) | MIC [3]: 2 µg/mL (≈ 3.41 µM) | MIC [4]: 2 µg/mL (≈ 3.41 µM) | MIC [5]: 2 µg/mL (≈ 3.41 µM) | MIC [6]: 2 µg/mL (≈ 3.41 µM) | MIC [7]: 0.25 µg/mL (≈ 0.427 µM) | MIC [8]: 0.5 µg/mL (≈ 0.854 µM) | MIC [9]: 0.5 µg/mL (≈ 0.854 µM) | MIC [10]: 1 µg/mL (≈ 1.71 µM) | MIC [11]: 0.25 µg/mL (≈ 0.427 µM) | MIC [12]: 0.25 µg/mL (≈ 0.427 µM) | MIC [13]: 2 µg/mL (≈ 3.41 µM) | MIC [14]: 2 µg/mL (≈ 3.41 µM) | MIC [15]: 1 µg/mL (≈ 1.71 µM) | MIC [16]: 1 µg/mL (≈ 1.71 µM) | MIC [17]: 0.12 µg/mL (≈ 0.205 µM) | MIC [18]: 0.12 µg/mL (≈ 0.205 µM) | MIC [19]: 2 µg/mL (≈ 3.41 µM) | MIC [20]: 2 µg/mL (≈ 3.41 µM) | MIC [21]: 2 µg/mL (≈ 3.41 µM) | MIC [22]: 2 µg/mL (≈ 3.41 µM) | MIC [23]: 1 µg/mL (≈ 1.71 µM) | MIC [24]: 1 µg/mL (≈ 1.71 µM) | MIC [25]: 2 µg/mL (≈ 3.41 µM) | MIC [26]: 1 µg/mL (≈ 1.71 µM) | MIC [27]: 2 µg/mL (≈ 3.41 µM) | MIC [28]: 1 µg/mL (≈ 1.71 µM) | MIC [29]: 1 µg/mL (≈ 1.71 µM) | MIC [30]: 1 µg/mL (≈ 1.71 µM) | MIC [31]: 0.5 µg/mL (≈ 0.854 µM) | MIC [32]: 8 µg/mL (≈ 13.7 µM) | MIC [33]: 0.25 µg/mL (≈ 0.427 µM) | MIC [34]: 0.12 µg/mL (≈ 0.205 µM) | MIC [35]: 0.5 µg/mL (≈ 0.854 µM) | MIC [36]: 0.25 µg/mL (≈ 0.427 µM) | MIC [37]: 1 µg/mL (≈ 1.71 µM) | MIC [38]: 0.5 µg/mL (≈ 0.854 µM) | MIC [39]: 0.5 µg/mL (≈ 0.854 µM) | MIC [40]: 0.5 µg/mL (≈ 0.854 µM) | MIC [41]: 2 µg/mL (≈ 3.41 µM) | MIC [42]: 2 µg/mL (≈ 3.41 µM) | MIC [43]: 1 µg/mL (≈ 1.71 µM) | MIC [44]: 1 µg/mL (≈ 1.71 µM) | MIC [45]: 1 µg/mL (≈ 1.71 µM) | MIC [46]: 2 µg/mL (≈ 3.41 µM) | MIC [47]: 0.25 µg/mL (≈ 0.427 µM) | MIC [48]: 0.25 µg/mL (≈ 0.427 µM)

Reference: paper PMC7311426, “An amphipathic peptide with antibiotic activity against multidrug-resistant Gram-negative bacteria” (Nature Communications, 2020)
